Data set [1] relates to diffuse axonal injury in rats (impact acceleration injury). The experiment in a line: Impact acceleration injury model in rats: APP / active caspase-3 positive axons by immunohistochemistry. In kind it is in vivo, Sprague-Dawley rats. Particulars: for APP positive axons: 30 days post injury, p<0.05 versus 148 in unsupplemented animals (sham 6). An excerpt:
(§1) Method. The impact acceleration injury model in rats described in Marmarou et al., J Neurosurg. 80:291-300 (1994), incorporated herein by reference, was used for the study. Four groups of ten (n=40) of adult male Sprague-Dawley rats were subjected to an impact acceleration injury resulting in reproducible severe traumatic brain injury. Rats weighing between 350 and 400 g received induction anesthesia and subsequently maintained on inhaled anesthetic using a modified medical anesthesia machine. The animals were shaved and prepared in sterile fashion for surgery, followed by subcutaneous injection of local anesthetic into the planned incision site. A 3 cm midline incision in the scalp was made, periosteal membranes separated, exposing bregma and lambda. A metal disk 10 mm in diameter and 3 mm thick was attached to the skull with cyanoacrylate and centered between bregma and lambda. The animal was placed prone on a foam bed with the metal disk directly under a plexiglas tube. A 450 g brass weight was dropped through the tube from a height of 2 meters striking the disk. The animal was then ventilated on 100% O2 while the skull inspected and the incision repaired. When the animal recovered spontaneous respirations, anesthesia was discontinued and the animal returned to its cage for postoperative observation (Marmarou et al., supra). All procedures involving live animals were approved by the Institutional Animal Care and Use Committee of West Virginia University, and were performed according to the principles of the Guide for the Care and Use of Laboratory Animals, published by the Institute of Laboratory Resources, National Research Council (NIH publication 85-23-2985).
(§2) DHA supplementation and serum level monitoring. The four groups received dietary supplementation with DHA (Martek, Columbia, Md.). Two of the four groups received dietary supplementation DHA daily in the following amounts: Group 1, 10 mg/kg/day; Group 2, 40 mg/kg/day. Groups 3 served as an unsupplemented control, and Group 4 underwent sham injury and received no supplementation. Each group received rat chow ad lib and were housed in a small animal vivarium under veterinary staff supervision. Fatty acid blood testing was performed prior to the injury and at the end of the 30 days of DHA supplementation by analyzing the isolated serum phospholipids (including DHA, EPA and Arachidonic acid) from 50 microliter blood samples using a previously described method (Holub and Skeaff, Methods Enzymol. 141:234-44 (1987); Nutrasource Diagnostics, University of Guelph, Ontario, Canada).
Tissue Preparation and Immunohistochemical Labeling. Following 30 day post-injury, surviving animals were euthanized with a lethal dose injection of 0.5 ml Ketamine and 0.5 ml Xylazine. […]

Data set [2] can be described thus: Serum phospholipid fatty acid levels after DHA supplementation following brain trauma. As to conditions: for increased levels of serum DHA over initial levels: dietary, serum phospholipids. In kind it is in vivo, Sprague-Dawley rats. Here is the method:
as §2

Data set [3] in a line: Tolerability of daily oral supplementation in the impact acceleration model. The data set is classed as in vivo. Particulars: 10 or 40 mg/kg/day.
Excerpt: as §1, with “All procedures involving live animals were approved by the Institutional Animal Care and Use Committee of West Virginia University, and were performed according to the principles of the Guide for the Care and Use of Laboratory Animals, published by the Institute of Laboratory Resources, National Research Council (NIH publication 85-23-2985).” left out

Structures are written as SMILES.

We go through one compound from US20110086914A1, “Methods for Treating Traumatic Brain Injury” (priority 2009, published 2011).

For the compound `CC/C=C\C/C=C\C/C=C\C/C=C\C/C=C\C/C=C\CCC(=O)O` [DHA, (all-Z)-4,7,10,13,16,19-docosahexaenoic acid], the APP positive axons in data set [1] (10 mg/kg/day DHA, corticospinal tract and medial lemnisci) is 26 axons per mm^2; in data set [1] (40 mg/kg/day DHA, corticospinal tract and medial lemnisci) it was 20 axons per mm^2. The “APP labeling of axons, qualitative” value in data set [1] (10 or 40 mg/kg/day DHA, corticospinal tract and medial lemnisci) is reported as “only rare APP positive axons, similar to sham injured animals”. In addition, the “active caspase-3 positive axons” value in data set [1] (10 or 40 mg/kg/day oral, 30 days following injury, data not shown) is listed as “significant decrease”. The “decrease in AA:EPA ratio, a marker of inflammation” value in data set [2] (10 mg/kg/day DHA, 30 days after brain trauma, serum) worked out at 72%. Besides, the “increased levels of serum DHA over initial levels” value came to 123% in data set [2] (10 mg/kg/day DHA, 30 days after brain trauma) and 176% in data set [2] (40 mg/kg/day DHA, 30 days after brain trauma). The “total EPA and DHA in serum phospholipids compared to the sham animals” value in data set [2] (end of supplementation period, 10 and 40 mg/kg/day) is “dose-response effect in the increase”. The “serum arachidonic acid levels” value in data set [2] (supplemented animals, end of supplementation period) is recorded as “non-significant increase”. Moreover, in data set [3], the “observed untoward effects of daily oral supplementation” value is “without any observed untoward effects”.
